From US11617796B2, “Conjugate of minoxidil and peptide” (CAREGEN CO., LTD., priority 2016, dated 2023)
Where no end group is shown, it is not given here.

What was measured:
β-catenin = assay: Translocation of β-catenin to nucleus in hair follicle dermal papilla cells (Western blotting); assay type: cell-based; conditions: 5 and 50 uM, 24 hours, same concentration; FIG. 10
Protocol: Hair follicle dermal papilla cells were placed in each well of a 6-well plate at 1×10^3 cells/well. Incubation was performed in a CO2 incubator for 24 hours. […] Protein was extracted using a protein extraction kit (extraction of each of the nuclear/cytoplasmic protein). Western blotting was carried out in the same manner as in Example 3-2 except that an anti-beta-catenin antibody, an anti-HDAC antibody, an anti-alpha tubulin antibody as primary antibodies were used.

VEGF = VEGF mRNA amount by RT-PCR in HUVECs; assay type: cell-based, human; conditions: 5 and 50 uM, 24 hours, compared with Minoxidil, FIGS. 4 to 6
Protocol: (§1) VEGF was expressed by HUVECs and TGFβ1 was expressed by hair follicle dermal papilla cells. Two cells were placed in each 6-well plate at a rate of 1×10^3 cells/well. After 24 hours of incubation in a CO2 incubator, the medium was replaced with serum-free DMEM medium. Three compounds of the present invention and Minoxidil were added to the cells at 5 uM and 50 uM concentration, respectively, and incubated for 24 hours. After incubated cells were harvested, RNA was extracted using an RNA extraction kit and RT-PCR was performed to confirm the degree of expression of VEGF and TGFβ1.

phospho-Smad1/5/8 = assay: Translocation of phospho-Smad1/5/8 to nucleus in the presence of BMP2 (Western blotting); assay type: cell-based; conditions: in the presence of BMP2, 5 and 50 uM, compared with Minoxidil; FIGS. 12 and 13
Protocol: Hair follicle dermal papilla cells were placed in each well of a 6-well plate at 1×10^3 cells/well. Incubation was performed in a CO2 incubator for 24 hours. After replacing the medium with serum-free DMEM medium, the Minoxidil, the Minoxidil-WINT, and the WINT were added respectively to the cells at a concentration of 5 uM and 50 uM, and then incubated for 24 hours. Protein was extracted using a protein extraction kit (extraction of each of the nuclear/cytoplasmic protein). Western blotting was carried out in the same manner as in Example 3-2 except that an anti-beta-catenin antibody, an anti-HDAC antibody, an anti-alpha tubulin antibody as primary antibodies were used.
The experiment was carried out in the same manner as in Example 5, except that in the presence of BMP2, the Minoxidil-Nokkin is used instead of the Minoxidil-WINT, and an anti-P-Smad1/5/8 antibody and an anti-HDAC1 antibody were used as primary antibodies.

TGFβ1 = TGFβ1 mRNA amount by RT-PCR in hair follicle dermal papilla cells; assay type: cell-based, human; conditions: 5 and 50 uM, 24 hours, compared with Minoxidil, FIGS. 4 to 6
Protocol: as §1

## Nc1cc(N2CCCCC2)nc(N)[n+]1[O-] [Minoxidil]
β-catenin
  degree of translocation of β-catenin to the nucleus: significantly lower degree of translocation of β-catenin to the nucleus

## Minoxidil-Nokkin: Minoxidil chemically conjugated to Nokkin peptide of SEQ ID NO: 1 (ELIEHGGGRPAD) (also: minoxidil conjugate, attachment site not given here)
VEGF
  expression of VEGF (mRNA): significantly higher than that of Minoxidil
phospho-Smad1/5/8
  delivery of P-Smad1/5/8 into the nucleus: reduced as compared to the treatment with the Minoxidil
TGFβ1
  expression of TGFβ1 (mRNA): significantly lower than that of the Minoxidil
